Laboratory results taken from US10640497B2, “Microbiocidal oxadiazole derivatives” (SYNGENTA PARTICIPATIONS AG, priority 2015, dated 2020).

Tests used:
[1] = test system: Phakopsora pachyrhizi; assay: Fungicidal activity against Phakopsora pachyrhizi, soybean, leaf disc preventative (Asian soybean rust); assay type: in vivo; conditions: foliar, 288 h, 12-14 days after application, compared to untreated control
How it was run: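 Soybean leaf discs on water agar were sprayed with compound diluted in water, then inoculated one day later with a spore suspension on the lower leaf surface. After 24-36 h dark at 20 °C, 75% rh, discs were held at 20 °C, 12 h light/day. Percent disease control versus untreated assessed 12-14 days post-application.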

[2] = test system: Puccinia recondita f. sp. tritici; assay: Fungicidal activity against Puccinia recondita f. sp. tritici, wheat, leaf disc preventative (brown rust); assay type: in vivo; conditions: foliar, wheat leaf segments, preventative (inoculated 1 day after application), 7-9 days after application, compared to untreated control
How it was run: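 Wheat cv. Kanzler leaf segments on water agar sprayed with compound (DMSO stock diluted in water), then inoculated with spore suspension 1 day later. Incubated at 19 °C, 75% rh, 12 h light/12 h dark; percent disease control versus untreated scored at 7-9 days after application.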

[3] = test system: Glomerella lagenarium (Colletotrichum lagenarium); assay: Fungicidal activity against Glomerella lagenarium (Colletotrichum lagenarium), liquid culture, cucumber, preventative (anthracnose); assay type: cell-based; conditions: Colletotrichum orbiculare, liquid culture (PDB), growth inhibition measured photometrically 3-4 days after application, compared to untreated control
How it was run: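 Glomerella lagenarium conidia in potato dextrose broth were exposed in 96-well plates to test compound diluted from DMSO stock with 0.025% Tween20 and incubated at 24 °C. Growth inhibition was read photometrically 3–4 days after application, as percent activity relative to untreated check.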

[4] = test system: Puccinia recondita f. sp. tritici; assay: Fungicidal activity against Puccinia recondita f. sp. tritici, wheat, leaf disc curative (brown rust); assay type: in vivo; conditions: foliar, 144 h, wheat leaf segments, curative (applied 1 day after inoculation), 6-8 days after application, compared to untreated control
How it was run: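 Wheat cv. Kanzler leaf segments on agar, inoculated with brown rust spores and kept dark at 19 °C, 75% rh; formulated compound sprayed 1 day after inoculation (curative). Incubated 19 °C, 75% rh, 12 h light/dark; percent disease control vs untreated scored 6–8 days after application.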

Structure (SMILES) | pest or weed control at 200 ppm [1] | pest or weed control at 200 ppm [2] | inhibition of growth at 20 ppm [3] | melting point | pest or weed control at 200 ppm [4]
O=C1CCON1Cc1ccc(-c2noc(C(F)(F)F)n2)cc1 [Compound A-5, 2-[[4-[5-(trifluoromethyl)-1,2,4-oxadiazol-3-yl]phenyl]methyl]isoxazolidin-3-one] | ≥ 80% | ≥ 80% | ≥ 80% | 54 to 58 °C | ≥ 80%
CC1CCN(Cc2ccc(-c3noc(C(F)(F)F)n3)cc2)C1=O (stereo not drawn) [Compound A-7, 3-methyl-1-[[4-[5-(trifluoromethyl)-1,2,4-oxadiazol-3-yl]phenyl]methyl]pyrrolidin-2-one] | ≥ 80% | ≥ 80% | ≥ 80% | 83 to 88 °C | ≥ 80%
O=C1C2C=CC(C2)N1Cc1ccc(-c2noc(C(F)(F)F)n2)cc1 (stereo not drawn) [Compound A-9, 3-[[4-[5-(trifluoromethyl)-1,2,4-oxadiazol-3-yl]phenyl]methyl]-3-azabicyclo[2.2.1]hept-5-en-2-one] | ≥ 80% | ≥ 80% | ≥ 80% | 50 to 53 °C | ≥ 80%
O=C1CCCN1Cc1ccc(-c2noc(C(F)(F)F)n2)cc1F [Compound A-22, 1-[[2-fluoro-4-[5-(trifluoromethyl)-1,2,4-oxadiazol-3-yl]phenyl]methyl]pyrrolidin-2-one] | ≥ 80% | ≥ 80% | ≥ 80% | 55 to 60 °C | ≥ 80%
CN1CC(=O)N(Cc2ccc(-c3noc(C(F)(F)F)n3)cc2)CC1=O [Compound A-26, 1-methyl-4-[[4-[5-(trifluoromethyl)-1,2,4-oxadiazol-3-yl]phenyl]methyl]piperazine-2,5-dione] | ≥ 80% | ≥ 80% | ≥ 80% | 134 to 142 °C | ≥ 80%
CC(C)(C)OC(=O)N1CCN(Cc2ccc(-c3noc(C(F)(F)F)n3)cc2)C(=O)C1 [Compound A-30, tert-butyl 3-oxo-4-[[4-[5-(trifluoromethyl)-1,2,4-oxadiazol-3-yl]phenyl]methyl]piperazine-1-carboxylate] | – | ≥ 80% | ≥ 80% | 96 to 99 °C | ≥ 80%
CNC(=O)N1CCN(Cc2ccc(-c3noc(C(F)(F)F)n3)cc2)C(=O)C1 [Compound A-33, N-methyl-3-oxo-4-[[4-[5-(trifluoromethyl)-1,2,4-oxadiazol-3-yl]phenyl]methyl]piperazine-1-carboxamide] | ≥ 80% | ≥ 80% | ≥ 80% | 114 to 118 °C | ≥ 80%
CN(C)C(=O)N1CCN(Cc2ccc(-c3noc(C(F)(F)F)n3)cc2)C(=O)C1 [Compound A-34, N,N-dimethyl-3-oxo-4-[[4-[5-(trifluoromethyl)-1,2,4-oxadiazol-3-yl]phenyl]methyl]piperazine-1-carboxamide] | ≥ 80% | ≥ 80% | ≥ 80% | 111 to 114 °C | ≥ 80%
COCCNC(=O)N1CCN(Cc2ccc(-c3noc(C(F)(F)F)n3)cc2)C(=O)C1 [Compound A-38, N-(2-methoxyethyl)-3-oxo-4-[[4-[5-(trifluoromethyl)-1,2,4-oxadiazol-3-yl]phenyl]methyl]piperazine-1-carboxamide] | ≥ 80% | ≥ 80% | – | 120 to 128 °C | ≥ 80%
CS(=O)(=O)N1CCN(Cc2ccc(-c3noc(C(F)(F)F)n3)cc2)C(=O)C1 [Compound A-41, 4-methylsulfonyl-1-[[4-[5-(trifluoromethyl)-1,2,4-oxadiazol-3-yl]phenyl]methyl]piperazin-2-one] | ≥ 80% | ≥ 80% | ≥ 80% | 155 to 160 °C | ≥ 80%
O=C1CCCC(=O)N1Cc1ccc(-c2noc(C(F)(F)F)n2)cc1 [Compound A-49, 1-[[4-[5-(trifluoromethyl)-1,2,4-oxadiazol-3-yl]phenyl]methyl]piperidine-2,6-dione] | ≥ 80% | ≥ 80% | ≥ 80% | 104 to 108 °C | ≥ 80%
O=C1CCC(=O)N1Cc1ccc(-c2noc(C(F)(F)F)n2)cc1 [Compound A-51, 1-[[4-[5-(trifluoromethyl)-1,2,4-oxadiazol-3-yl]phenyl]methyl]pyrrolidine-2,5-dione] | ≥ 80% | ≥ 80% | ≥ 80% | 113 to 117 °C | ≥ 80%
CC1(C)CCCN(Cc2ccc(-c3noc(C(F)(F)F)n3)c(F)c2)C1=O [Compound A-54, 1-[[3-fluoro-4-[5-(trifluoromethyl)-1,2,4-oxadiazol-3-yl]phenyl]methyl]-3,3-dimethyl-piperidin-2-one] | ≥ 80% | ≥ 80% | ≥ 80% | 69 to 73 °C | ≥ 80%
CC(=O)N1CC(=O)N(Cc2ccc(-c3noc(C(F)(F)F)n3)cc2)C(=O)C1 [Compound A-55, 4-acetyl-1-[[4-[5-(trifluoromethyl)-1,2,4-oxadiazol-3-yl]phenyl]methyl]piperazine-2,6-dione] | ≥ 80% | ≥ 80% | ≥ 80% | 111 to 114 °C | ≥ 80%
CCOC(=O)N1CC(=O)N(Cc2ccc(-c3noc(C(F)(F)F)n3)cc2)C(=O)C1 [Compound A-57, ethyl 3,5-dioxo-4-[[4-[5-(trifluoromethyl)-1,2,4-oxadiazol-3-yl]phenyl]methyl]piperazine-1-carboxylate] | ≥ 80% | ≥ 80% | ≥ 80% | 89 to 92 °C | –
CNC(=O)N1CC(=O)N(Cc2ccc(-c3noc(C(F)(F)F)n3)cc2)C(=O)C1 [Compound A-58, N-methyl-3,5-dioxo-4-[[4-[5-(trifluoromethyl)-1,2,4-oxadiazol-3-yl]phenyl]methyl]piperazine-1-carboxamide] | ≥ 80% | ≥ 80% | ≥ 80% | 148 to 153 °C | –
O=C1CNC(=O)N1Cc1ccc(-c2noc(C(F)(F)F)n2)cc1 [Compound A-65, 3-[[4-[5-(trifluoromethyl)-1,2,4-oxadiazol-3-yl]phenyl]methyl]imidazolidine-2,4-dione] | ≥ 80% | ≥ 80% | ≥ 80% | 200 to 203 °C | –
O=C1CCON1Cc1c(F)cc(-c2noc(C(F)(F)F)n2)cc1F [Compound A-67, 2-[[2,6-difluoro-4-[5-(trifluoromethyl)-1,2,4-oxadiazol-3-yl]phenyl]methyl]isoxazolidin-3-one] | ≥ 80% | – | ≥ 80% | 75 to 80 °C | ≥ 80%
